According to US20060270656A1, “Substituted piperazines of azepines, oxazepines and thiazepines” (ELI LILLY AND COMPANY, priority 2003, published 2006):
Counter-ions that a name gives are not always drawn.

| melting point | SMILES |
| --- | --- |
| 130 to 132 °C | CC(=O)c1nc2c(s1)Sc1ccccc1N=C2N1CCN(C)[C@@H](CCc2cccc(F)c2)C1.Cl.Cl |
| 48 to 64 °C | CN1CCN(C2=Nc3ccccc3Sc3ccccc32)C[C@@H]1Cc1ccccc1 |
| 149 to 152 °C (dec.) | COCC[C@H]1CN(C2=Nc3ccccc3Sc3sc(C(C)C)cc32)CCN1.Cl.Cl |
| 143 to 147 °C (dec.) | COCC[C@H]1CN(C2=Nc3ccccc3Sc3sc(C(C)C)cc32)CCN1C.Cl.Cl |
| 44 to 54 °C | CN1CCN(C2=Nc3ccccc3Sc3ccccc32)C[C@@H]1CCc1ccccc1 |
| 146 to 148 °C | COCC[C@H]1CN(C2=Nc3ccccc3Sc3scnc32)CCN1C (as salt: hydrochloride) |
| 129 to 130 °C | CCc1nc2c(s1)Sc1ccccc1N=C2N1CCN(C)[C@@H](CCc2ccc(OC)cc2)C1.Cl |
| 56 to 69 °C | c1ccc(C[C@@H]2CN(C3=Nc4ccccc4Sc4ccccc43)CCN2)cc1 |
| 184 to 186 °C | COCC[C@H]1CN(C2=Nc3ccccc3Sc3scnc32)CCN1 (as salt: hydrochloride) |
| 48 to 59 °C | c1ccc(CC[C@H]2CN(C3=Nc4ccccc4Sc4ccccc43)CCN2)cc1 |
| 138 to 140 °C | COCC[C@H]1CN(C2=Nc3ccccc3Sc3sc(C(C)=O)nc32)CCN1C.Cl.Cl |
| 181 to 187 °C | CCc1cc2c(s1)Sc1ccccc1N=C2N1CCN(C)[C@@H](CCOC)C1.Cl.Cl |
| 46 to 63 °C | CN1CCN(C2=Nc3ccccc3Sc3ccccc32)C[C@H]1Cc1ccccc1 |
| 133 to 135 °C | CCc1nc2c(s1)Sc1ccccc1N=C2N1CCN(C)[C@@H](CCc2cccc(F)c2)C1.Cl |
| 54 to 71 °C | c1ccc(C[C@H]2CN(C3=Nc4ccccc4Sc4ccccc43)CCN2)cc1 |
